Source: the NIST ThermoML archive (doi:10.1016/j.fluid.2006.09.019)
± gives the expanded uncertainty stated by the source.

Conditions: Liquid

COC(=O)CO [methyl hydroxyethanoate]
Conditions	vapor or sublimation pressure [kPa]
293.23 K	0.4864 ± 0.077
303.17 K	0.8459 ± 0.12
313.27 K	1.409 ± 0.16
323.12 K	2.311 ± 0.18
333.28 K	3.738 ± 0.22
343.26 K	5.905 ± 0.27
353.25 K	9.292 ± 0.36
